Reference: US5340821A, “Composition and method for treating Sjoegren syndrome disease” (Snow Brand Milk Products Co., Ltd., priority 1992, dated 1994)
Counter-ions that a name gives are not always drawn.

Key:
saliva secretion [1] = test: Saliva secretion effects in patients suffering from a Sjoegren syndrome disease (Saxon test); format: in vivo, human
Description: (§1) Five subjects diagnosed to be suffering from a Sjoegren syndrome disease according to the diagnosis criteria made by the study team at the Ministry of Health and Welfare (M. Ofuji, Study Report Summary for 1977, the results for the year 1977 of Diagnostic criteria of Sjoegren's syndrome (Ministry of Health and Welfare's Sjoegren Investigational Research Group), M. Ofugi, Research Report of Ministry of Health and Welfare's specific disease Sjoegren Investigational Research Group in 1977, 3-6, 1978). To each subject was administered said hydrochloric acid addition salt of quinuclidine of formula (II) at a dose of 10 mg, three times a day, each time one hour before meal, for 4 weeks (the first course); 20 mg, three times a day, each time one hour before meal, for 4 weeks (the second course); and 30 mg, three times a day, each time one hour before meal, for 4 weeks (the third course). The Saxon test (Kohler P. F., Winter M. E., Arthritis Rheum, 28, 1128-1132 (1985)) for measuring the saliva secretion was performed before the start of the first course, and after the completion of the first, second, and third courses.

saliva secretion [2] = test: Saliva secretion effects in dogs; format: in vivo; settings: four weeks, 4 female beagle dogs
Description: (§2) 2-Methylspiro(1,3-oxathiolane-5,3')quinuclidine hydrochloride of formula (II), in amounts of 0, 0.5, 3, and 18 mg/kg, was orally administered to female beagle dogs (weight: 7.1-9.6 kg) of four groups, each consisting of four dogs, one time a day and for four weeks.

[3] = Toxicity Test (LD50, observation of mice for two weeks); set-up: species or system ICR (CD-1) mice; settings: mouse, in vivo
Description: Groups of ICR (CD-1) male and female mice (age: 5 weeks, weight of male mice: 22.0-33.8 g, weight of female mice: 18.8-27.3 g), each consisting of eight mice, were used for the test. 2-methylspiro(1,3-oxathiolane-5,3')quinuclidine hydrochloride of formula (II) was orally, intravenously, or subcutaneously administered at different (high and low) doses. LD50 (50% lethal dose) was determined by the observation of mice for two weeks thereafter.

saliva secretion [4] = test: Saliva secretion effects in human; format: in vivo; settings: 10 tested subjects
Description: 2-Methylspiro(1,3-oxathiolane-5,3')quinuclidine hydrochloride of formula (II), in amounts of 5, 10, 20, 30, 40, 50, 60, and 70 mg, was orally administered to five men and five women, aged 20-50 years.

tear secretion = test: Tear secretion effects in dogs; format: in vivo; settings: four weeks, 4 female beagle dogs
Description: as §2

[5] = test system: Sjoegren syndrome disease; test: Observation of the patient (Sjoegren syndrome disease); format: in vivo, human
Description: as §1

[6] = background statement; cited from earlier work

SMILES: CC1OC2(CS1)CN1CCC2CC1 (stereo not shown) [2-methylspiro(1,3-oxathiolane-5,3')quinuclidine hydrochloride]
- Ratio of secreted saliva to the value before the administration in the first course (saliva secretion [1]; subject 1, after first course (10 mg three times a day)): 1.66
- Amount of secreted saliva (saliva secretion [1]; subject 1, after first course (10 mg three times a day, 4 weeks), before 0.65 g): 1.08 g
- Ratio of secreted saliva to the value before the administration in the first course (saliva secretion [1]; subject 1, after second course (20 mg three times a day)): 3.15
- Amount of secreted saliva (saliva secretion [1]; subject 1, after second course (20 mg three times a day, 4 weeks), before 0.65 g): 2.05 g
- Ratio of secreted saliva to the value before the administration in the first course (saliva secretion [1]; subject 1, after third course (30 mg three times a day)): 6.00
- Amount of secreted saliva (saliva secretion [1]; subject 1, after third course (30 mg three times a day, 4 weeks), before 0.65 g): 3.90 g
- Ratio of secreted saliva to the value before the administration in the first course (saliva secretion [1]; subject 2, after first course (10 mg three times a day)): 1.70
- Amount of secreted saliva (saliva secretion [1]; subject 2, after first course (10 mg three times a day, 4 weeks), before 0.73 g): 1.24 g
- Ratio of secreted saliva to the value before the administration in the first course (saliva secretion [1]; subject 2, after second course (20 mg three times a day)): 3.48
- Amount of secreted saliva (saliva secretion [1]; subject 2, after second course (20 mg three times a day, 4 weeks), before 0.73 g): 2.54 g
- Ratio of secreted saliva to the value before the administration in the first course (saliva secretion [1]; subject 2, after third course (30 mg three times a day)): 6.16
- Amount of secreted saliva (saliva secretion [1]; subject 2, after third course (30 mg three times a day, 4 weeks), before 0.73 g): 4.50 g
- Ratio of secreted saliva to the value before the administration in the first course (saliva secretion [1]; subject 3, after first course (10 mg three times a day)): 1.91
- Amount of secreted saliva (saliva secretion [1]; subject 3, after first course (10 mg three times a day, 4 weeks), before 0.76 g): 1.45 g
- Ratio of secreted saliva to the value before the administration in the first course (saliva secretion [1]; subject 3, after second course (20 mg three times a day)): 2.05
- Amount of secreted saliva (saliva secretion [1]; subject 3, after second course (20 mg three times a day, 4 weeks), before 0.76 g): 1.56 g
- Ratio of secreted saliva to the value before the administration in the first course (saliva secretion [1]; subject 3, after third course (30 mg three times a day)): 4.80
- Amount of secreted saliva (saliva secretion [1]; subject 3, after third course (30 mg three times a day, 4 weeks), before 0.76 g): 3.65 g
- Ratio of secreted saliva to the value before the administration in the first course (saliva secretion [1]; subject 4, after first course (10 mg three times a day)): 1.51
- Amount of secreted saliva (saliva secretion [1]; subject 4, after first course (10 mg three times a day, 4 weeks), before 0.43 g): 0.65 g
- Ratio of secreted saliva to the value before the administration in the first course (saliva secretion [1]; subject 4, after second course (20 mg three times a day)): 3.80
- Amount of secreted saliva (saliva secretion [1]; subject 4, after second course (20 mg three times a day, 4 weeks), before 0.43 g): 1.63 g
- Ratio of secreted saliva to the value before the administration in the first course (saliva secretion [1]; subject 4, after third course (30 mg three times a day)): 6.72
- Amount of secreted saliva (saliva secretion [1]; subject 4, after third course (30 mg three times a day, 4 weeks), before 0.43 g): 2.89 g
- Ratio of secreted saliva to the value before the administration in the first course (saliva secretion [1]; subject 5, after first course (10 mg three times a day)): 1.31
- Amount of secreted saliva (saliva secretion [1]; subject 5, after first course (10 mg three times a day, 4 weeks), before 0.45 g): 0.59 g
- Ratio of secreted saliva to the value before the administration in the first course (saliva secretion [1]; subject 5, after second course (20 mg three times a day)): 2.16
- Amount of secreted saliva (saliva secretion [1]; subject 5, after second course (20 mg three times a day, 4 weeks), before 0.45 g): 0.97 g
- Ratio of secreted saliva to the value before the administration in the first course (saliva secretion [1]; subject 5, after third course (30 mg three times a day)): 3.27
- Amount of secreted saliva (saliva secretion [1]; subject 5, after third course (30 mg three times a day, 4 weeks), before 0.45 g): 1.47 g
- Number of animals secreted saliva (saliva secretion [2]; 0.5 mg/kg/day oral): 0 animals
- Number of animals secreted saliva (%) (saliva secretion [2]; 0.5 mg/kg/day oral): 0%
- Number of animals secreted saliva (saliva secretion [2]; 3.0 mg/kg/day oral): 3 animals
- Number of animals secreted saliva (%) (saliva secretion [2]; 3.0 mg/kg/day oral): 75%
- Number of animals secreted saliva (saliva secretion [2]; 18.0 mg/kg/day oral): 4 animals
- Number of animals secreted saliva (%) (saliva secretion [2]; 18.0 mg/kg/day oral): 100%
- LD50 at 336 h ([3]; iv, female mice): 40.8 mg/kg
- LD50 at 336 h ([3]; iv, male mice): 45.2 mg/kg
- LD50 at 336 h ([3]; po, female mice): 167 mg/kg
- LD50 at 336 h ([3]; po, male mice): 139 mg/kg
- LD50 at 336 h ([3]; sc, Subcutaneous, female mice): 78.1 mg/kg
- LD50 at 336 h ([3]; sc, Subcutaneous, male mice): 65 mg/kg
- Subjects showing promoted saliva secretion (saliva secretion [4]; 5 mg oral): 0 subjects
- Subjects showing promoted saliva secretion (saliva secretion [4]; 10 mg oral): 0 subjects
- Subjects showing promoted saliva secretion (saliva secretion [4]; 20 mg oral): 2 subjects
- Subjects showing promoted saliva secretion (saliva secretion [4]; 30 mg oral): 8 subjects
- Subjects showing promoted saliva secretion (saliva secretion [4]; 40 mg oral): 10 subjects
- Subjects showing promoted saliva secretion (saliva secretion [4]; 50 mg oral): 10 subjects
- Subjects showing promoted saliva secretion (saliva secretion [4]; 60 mg oral): 10 subjects
- Subjects showing promoted saliva secretion (saliva secretion [4]; 70 mg oral): 10 subjects
- Number of animals secreted tear (tear secretion; 0.5 mg/kg/day oral): 0 animals
- Number of animals secreted tear (%) (tear secretion; 0.5 mg/kg/day oral): 0%
- Number of animals secreted tear (tear secretion; 3.0 mg/kg/day oral): 1 animals
- Number of animals secreted tear (%) (tear secretion; 3.0 mg/kg/day oral): 25%
- Number of animals secreted tear (tear secretion; 18.0 mg/kg/day oral): 4 animals
- Number of animals secreted tear (%) (tear secretion; 18.0 mg/kg/day oral): 100%
- Observation of the patient: Saliva secretion ([5]; subject 1): increased
- Observation of the patient: A dry feeling of oral cavity and irritation in the eyes ([5]; subject 2): improved
- Observation of the patient: The need for drinking water when taking food ([5]; subject 3): eliminated
- Observation of the patient: Incidence of being awaken due to dry mouth at midnight ([5]; subject 4): improved

SMILES: CC(C[N+](C)(C)C)OC(N)=O (stereo not shown) [bethanechol]
- side effects [6]: comprehensive side effects such as headache, hot flush, palpitation, intrathoracic agony, nausea, emesis, diarrhea, abdominal discomfort, pyrosis, stomach discomfort, diaphoresis, and the like
